From the supplement of paper PMC10307832

Legend:
Assay in all cases: relative viability (nuclei count vs DMSO), 5 days (fraction); higher = more cells survive
Cediranib + Palbociclib = compound: COc1cc2c(Oc3ccc4[nH]c(C)cc4c3F)ncnc2cc1OCCCN1CCCC1 [Cediranib] + CC(=O)c1c(C)c2cnc(Nc3ccc(N4CCNCC4)cn3)nc2n(C2CCCC2)c1=O [Palbociclib] (partner 0.5 µM)
How it was run: (§1)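 Lung cancer cell lines were pin-tool dosed in 1536-well plates on the day after seeding, with either a lone drug or a fixed anchor-drug dose plus five library-drug doses (not always all listed) in √10 steps. Nuclei were counted on 4× images after 5 days. Relative viability is the ratio of treated-well to vehicle-well nuclei counts, with each value a median of duplicate plates.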

Cediranib + Phenformin = compound: COc1cc2c(Oc3ccc4[nH]c(C)cc4c3F)ncnc2cc1OCCCN1CCCC1 [Cediranib] + N=C(N)NC(=N)NCCc1ccccc1 [Phenformin] (partner 250 µM)
How it was run: as §1

Decitabine + Foretinib = compound: Nc1ncn([C@H]2C[C@H](O)[C@@H](CO)O2)c(=O)n1 [Decitabine] + COc1cc2c(Oc3ccc(NC(=O)C4(C(=O)Nc5ccc(F)cc5)CC4)cc3F)ccnc2cc1OCCCN1CCOCC1 [Foretinib] (partner 0.25 µM)
How it was run: as §1

Cediranib + Vorinostat = compound: COc1cc2c(Oc3ccc4[nH]c(C)cc4c3F)ncnc2cc1OCCCN1CCCC1 [Cediranib] + O=C(CCCCCCC(=O)Nc1ccccc1)NO [Vorinostat] (partner 1 µM)
How it was run: as §1

## UMC-11
Cediranib + Palbociclib; first compound 0.04 µM
  relative viability: 0.345
Cediranib + Palbociclib; first compound 0.1265 µM
  relative viability: 0.341
Cediranib + Palbociclib; first compound 0.4 µM
  relative viability: 0.315
Cediranib + Palbociclib; first compound 1.265 µM
  relative viability: 0.328
Cediranib + Palbociclib; first compound 4 µM
  relative viability: 0.359
Cediranib + Phenformin; first compound 0.04 µM
  relative viability: 0.342
Cediranib + Phenformin; first compound 0.4 µM
  relative viability: 0.346
Cediranib + Phenformin; first compound 4 µM
  relative viability: 0.3
Decitabine + Foretinib; first compound 0.04 µM
  relative viability: 0.906
Decitabine + Foretinib; first compound 0.1265 µM
  relative viability: 0.79
Decitabine + Foretinib; first compound 0.4 µM
  relative viability: 0.511
Decitabine + Foretinib; first compound 1.265 µM
  relative viability: 0.399
Decitabine + Foretinib; first compound 4 µM
  relative viability: 0.372
Cediranib + Vorinostat; first compound 0.04 µM
  relative viability: 0.396
Cediranib + Vorinostat; first compound 0.1265 µM
  relative viability: 0.256
Cediranib + Vorinostat; first compound 0.4 µM
  relative viability: 0.345
Cediranib + Vorinostat; first compound 1.265 µM
  relative viability: 0.392
Cediranib + Vorinostat; first compound 4 µM
  relative viability: 0.412
